Experimental data as given in patent US9346769B2, “Tetrazolones as inhibitors of fatty acid synthase” (Infinity Pharmaceuticals, Inc., priority 2010, dated 2016).

These compounds were tested against T1, human FASN (Homo sapiens, UniProt P49327) (assay: FASN Scintillation Proximity Flashplate Assay). Settings: human FASN purified from SKBR3 cells; unstarred symbols.
T1 construct: was purified from SKBR3 cells using procedures modified from those in Jayakumar et al; endogenous in cells; host or cells: SKBR3 human breast cancer cells (ATCC); Endogenous enzyme purified by ammonium sulfate precipitation and a mono Q column
T1 sequence (P49327 whole entry): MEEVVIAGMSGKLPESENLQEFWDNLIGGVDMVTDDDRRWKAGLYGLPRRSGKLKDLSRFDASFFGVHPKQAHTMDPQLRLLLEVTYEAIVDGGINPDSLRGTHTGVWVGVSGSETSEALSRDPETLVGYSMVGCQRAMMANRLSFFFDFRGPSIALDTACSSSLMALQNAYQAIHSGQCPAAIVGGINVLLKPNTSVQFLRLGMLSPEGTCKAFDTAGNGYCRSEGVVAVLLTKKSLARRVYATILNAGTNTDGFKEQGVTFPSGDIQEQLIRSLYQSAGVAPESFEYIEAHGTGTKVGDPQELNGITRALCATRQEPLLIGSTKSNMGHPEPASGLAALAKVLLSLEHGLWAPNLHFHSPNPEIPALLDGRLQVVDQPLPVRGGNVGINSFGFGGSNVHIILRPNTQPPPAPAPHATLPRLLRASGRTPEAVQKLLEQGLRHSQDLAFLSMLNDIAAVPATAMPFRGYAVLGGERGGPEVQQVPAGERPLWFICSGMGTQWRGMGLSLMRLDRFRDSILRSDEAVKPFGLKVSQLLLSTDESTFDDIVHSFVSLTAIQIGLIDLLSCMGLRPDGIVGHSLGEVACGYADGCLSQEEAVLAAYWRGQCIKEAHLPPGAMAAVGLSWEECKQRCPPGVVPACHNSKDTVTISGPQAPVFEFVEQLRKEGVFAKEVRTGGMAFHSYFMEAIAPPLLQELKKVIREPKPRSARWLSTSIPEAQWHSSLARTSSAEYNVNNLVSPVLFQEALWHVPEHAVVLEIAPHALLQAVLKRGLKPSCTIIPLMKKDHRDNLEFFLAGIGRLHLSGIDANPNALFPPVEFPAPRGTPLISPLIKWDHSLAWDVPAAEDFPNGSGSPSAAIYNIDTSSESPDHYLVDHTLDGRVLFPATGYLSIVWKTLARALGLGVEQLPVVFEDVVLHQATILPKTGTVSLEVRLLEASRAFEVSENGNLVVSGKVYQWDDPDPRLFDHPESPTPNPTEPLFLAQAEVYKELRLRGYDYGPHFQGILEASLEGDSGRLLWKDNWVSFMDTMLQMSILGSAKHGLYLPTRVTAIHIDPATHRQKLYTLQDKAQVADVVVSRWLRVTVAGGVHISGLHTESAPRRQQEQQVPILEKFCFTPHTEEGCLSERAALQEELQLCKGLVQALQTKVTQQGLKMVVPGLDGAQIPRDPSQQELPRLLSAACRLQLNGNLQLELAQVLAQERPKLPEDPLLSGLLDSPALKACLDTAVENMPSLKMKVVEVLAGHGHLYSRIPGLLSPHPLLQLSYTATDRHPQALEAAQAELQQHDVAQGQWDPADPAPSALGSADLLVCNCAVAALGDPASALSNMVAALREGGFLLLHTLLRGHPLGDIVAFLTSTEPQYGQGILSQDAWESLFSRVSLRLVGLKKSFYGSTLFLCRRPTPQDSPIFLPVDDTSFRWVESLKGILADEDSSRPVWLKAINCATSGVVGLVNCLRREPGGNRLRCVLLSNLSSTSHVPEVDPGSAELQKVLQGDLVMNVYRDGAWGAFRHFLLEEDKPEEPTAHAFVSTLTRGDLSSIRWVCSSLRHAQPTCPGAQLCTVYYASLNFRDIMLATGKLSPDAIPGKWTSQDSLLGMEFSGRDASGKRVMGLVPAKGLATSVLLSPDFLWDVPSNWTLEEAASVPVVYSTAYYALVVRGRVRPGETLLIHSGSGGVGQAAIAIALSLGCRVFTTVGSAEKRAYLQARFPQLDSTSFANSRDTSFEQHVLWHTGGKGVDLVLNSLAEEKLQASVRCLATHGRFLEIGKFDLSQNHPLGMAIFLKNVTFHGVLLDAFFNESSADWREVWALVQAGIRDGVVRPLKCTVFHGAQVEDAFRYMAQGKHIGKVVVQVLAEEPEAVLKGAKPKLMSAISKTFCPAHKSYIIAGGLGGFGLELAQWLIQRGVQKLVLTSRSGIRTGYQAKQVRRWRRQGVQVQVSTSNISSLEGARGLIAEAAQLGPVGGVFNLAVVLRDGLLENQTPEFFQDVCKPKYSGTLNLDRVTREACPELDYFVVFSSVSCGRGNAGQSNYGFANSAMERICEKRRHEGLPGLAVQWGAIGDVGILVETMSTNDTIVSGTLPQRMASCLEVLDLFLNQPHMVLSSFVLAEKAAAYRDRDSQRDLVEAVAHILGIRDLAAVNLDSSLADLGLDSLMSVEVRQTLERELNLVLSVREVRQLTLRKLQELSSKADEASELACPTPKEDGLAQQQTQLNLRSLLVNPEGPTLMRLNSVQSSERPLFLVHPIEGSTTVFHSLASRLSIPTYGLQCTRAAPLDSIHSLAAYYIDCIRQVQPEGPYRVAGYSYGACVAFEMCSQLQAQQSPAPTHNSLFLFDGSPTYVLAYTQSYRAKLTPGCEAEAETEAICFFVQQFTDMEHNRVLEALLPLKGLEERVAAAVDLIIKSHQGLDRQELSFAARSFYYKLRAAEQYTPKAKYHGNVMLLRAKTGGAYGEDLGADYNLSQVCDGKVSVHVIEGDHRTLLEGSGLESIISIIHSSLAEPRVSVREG
Type: biochemical
How it was run: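 Human FASN purified from SKBR3 cells (1 nM final) preincubated with compound 30 min at 37 °C in phosphate buffer pH 7.0, then reacted 2 h at 37 °C with 100 μM acetyl-CoA plus [3H]-acetyl-CoA, 300 μM malonyl-CoA, 2 mM NADPH. Stopped with orlistat; scintillation-proximity CPM gave % inhibition, four-parameter IC50.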
In the case of COc1ccc(N(C(=O)n2nnn(-c3cccc(N)c3N)c2=O)C2CCCCC2)cc1C(=O)O, the IC50 is reported as 15 to 100 nM. COc1ccc(N(C(=O)n2nnn(-c3c(F)cccc3F)c2=O)C2CCCCC2)cc1C(=O)O was tested, and the IC50 was less than 15 nM. Compound CCN(C(=O)n1nnn(-c2c(F)cccc2F)c1=O)c1ccc(NS(C)(=O)=O)cc1F has an IC50 of less than 15 nM. For COc1ccc(COC(=O)c2cc(N(C(=O)n3nnn(-c4cccc5nsnc45)c3=O)C3CCCCC3)ccc2OC)cc1, the IC50 was less than 15 nM. For CC(C)N(C(=O)n1nnn(-c2c(F)cccc2F)c1=O)c1ccc(N(S(C)(=O)=O)S(C)(=O)=O)c(C(=O)OCc2ccccc2)c1, the IC50 was less than 15 nM. COc1cccc(F)c1-n1nnn(C(=O)N(c2ccccc2)C2CCCCC2)c1=O showed an IC50 of 15 to 100 nM. In the case of O=C(O)c1ccc(N(C(=O)n2nnn(-c3c(F)cccc3F)c2=O)C2CCCCC2)cc1O, the IC50 is reported as less than 15 nM. With CN(C)c1ccc2c(c1)OC(=O)CC2CC(=O)Nc1cccc2c1CCCN2C(=O)n1nnn(-c2c(F)cccc2F)c1=O (stereo not drawn) the IC50 was 15 to 100 nM. CC(C)N(C(=O)n1nnn(-c2c(F)cccc2F)c1=O)c1ccc(N)c(C(=O)OCc2ccccc2)c1 was tested, and the IC50 was less than 15 nM. CCN(C(=O)n1nnn(-c2c(F)cccc2OC)c1=O)c1ccccc1Oc1ccccc1 gave an IC50 of 15 to 100 nM. In the case of CCN(C(=O)n1nnn(-c2c(F)cccc2C(=O)N2CCCCC2)c1=O)c1ccccc1Oc1ccccc1, the IC50 is reported as 100 to 200 nM. With COc1ccc(N(C(=O)n2nnn(-c3c(F)cccc3F)c2=O)C2CCCCC2)c(OC)c1C(=O)OCc1ccccc1 the IC50 was less than 15 nM. In the case of COc1cc(Oc2ccccc2)c(N(C(=O)n2nnn(-c3c(F)cccc3F)c2=O)C2CCCC2)cc1C(=O)O, the IC50 is reported as less than 15 nM. With CCN(C(=O)n1nnn(-c2c(F)cccc2C(=O)NCc2ccccc2)c1=O)c1ccccc1Oc1ccccc1 the IC50 was 15 to 100 nM. For COc1cc(C(=O)O)cc(N(C(=O)n2nnn(-c3c(F)cccc3F)c2=O)C(C)C)c1, the IC50 was less than 15 nM. COc1cccc(F)c1-n1nnn(C(=O)N(CC(C)(C)C)c2cccc(C(=O)O)c2)c1=O gave an IC50 of 200 to 5000 nM. CN(C)N(C(=O)n1nnn(-c2c(F)cccc2F)c1=O)C1=CCCC1 was tested, and the IC50 was 15 to 100 nM. Compound COCCOCOc1ccc(N(C(=O)n2nnn(-c3c(F)cccc3F)c2=O)C2CCCCC2)cc1C(=O)O has an IC50 of less than 15 nM. COc1ccc(N(C(=O)n2nnn(-c3c(F)cccc3F)c2=O)C(C)C)cc1C(=O)OCc1ccccc1 gave an IC50 of less than 15 nM. With CCC(CC)N(C(=O)n1nnn(-c2c(F)cccc2F)c1=O)c1cccc(C(=O)O)c1 the IC50 was 15 to 100 nM. Work on CCOC(=O)c1cc(C)n(-c2ccc(N(C(=O)n3nnn(-c4c(F)cccc4F)c3=O)C3CCCCC3)cc2C(=O)O)n1 yielded an IC50 of less than 15 nM.
